What is called bioavailability is the share of a dose that reaches the circulation, judged against a reference dose that is usually intravenous. What is called inhibition is the share of the control response that was lost under treatment. A high value points to strong suppression. For orientation: IC50 means the concentration at which inhibition is half-maximal. A lower IC50 goes with inhibition by little substance.

The record followed here is ChEMBL document CHEMBL3864189, “Carboxamide Spleen Tyrosine Kinase (Syk) Inhibitors: Leveraging Ground State Interactions To Accelerate Optimization” (ACS Med Chem Lett, 2016).

Structures are written as SMILES. The source made the active and inactive calls. No cut-off for these calls is given here.

Data set [1] has as its system Salmonella typhimurium. Description: Genotoxicity in Salmonella typhimurium TA97a in presence of rat s9 fraction by Ames test. In kind it is toxicity, organism-based. The note with it: salmonella enterica subsp. enterica serovar typhimurium.
Data set [2] in a line: Unbound plasma clearance in po dosed rat. Particulars: in vivo. In kind it is ADME, organism-based.
A short description of data set [3]: Oral bioavailability in rat. The format is ADME, organism-based. Particulars: in vivo.
Data set [4] has as its target T1, Tyrosine-protein kinase SYK (Homo sapiens, UniProt P43405). Put plainly: Inhibition of GST-tagged full length human SYK (1 to 635 end residues) expressed in baculovirus expression system at 10 uM preincubated for 10 mins followed by Blk/Lyntide substrate and ATP addition measured after 45 mins TR-FRET assay relative to control. For orientation: TR-FRET usually uses a lanthanide donor and a delayed reading to cut background.

Data set [5] concerns the target T1, Tyrosine-protein kinase SYK. Description: Inhibition of GST-tagged full length human SYK (1 to 635 end residues) expressed in baculovirus expression system preincubated for 10 mins followed by Blk/Lyntide substrate and ATP addition measured after 45 mins TR-FRET assay.
The next data set deals with Rattus norvegicus. Description: Antiarthritic activity in collagen-induced arthritis rat model at 3 mg/kg, po administered qd. In kind it is functional, organism-based.
The test system of data set [6] is Salmonella typhimurium. Put plainly: Genotoxicity in Salmonella typhimurium TA97a by Ames test. In kind it is toxicity, organism-based. Particulars: salmonella enterica subsp. enterica serovar typhimurium. On the technique in general: The Ames test uses bacterial strains that need an amino acid and regain growth without it when mutated back.

As for `NC(=O)c1ncc(N[C@@H]2CCCC[C@@H]2N)cc1/C=C/c1ccccc1`, the Activity result in the data set with Salmonella typhimurium [1] is “Non-Toxic”.
The same measure, in the same setting: the value for `C[C@H](N)CNc1cnc(C(N)=O)c(-c2cc3ccccc3o2)n1` was “Non-Toxic”.
The same measure, in the same setting: the value for `NC(=O)c1ncc(N[C@@H]2CCCC[C@@H]2N)cc1COc1ccccc1` was “Non-Toxic”.
On the same count and under the same terms, the value for `C[C@H](N)CNc1cnc(C(N)=O)c(-c2cnn(C)c2)n1` was “Non-Toxic”; that for `NC(=O)c1ncc(N[C@@H]2CCCC[C@@H]2N)cc1C#Cc1ccccc1` was “Non-Toxic”.
Molecule `COc1cccc2[nH]c(-c3nc(N[C@@H]4CCOC[C@@H]4N)cnc3C(N)=O)cc12` had a CL free in data set [2] of 100 mL/min/kg. In addition, the Activity result in the data set with Salmonella typhimurium [1] is “Non-Toxic”.
On to `C[C@H](N)CNc1cnc(C(N)=O)c(-c2cc3ccccc3[nH]2)n1`, for which, in the data set on Salmonella typhimurium [1], the Activity entry is listed as “Non-Toxic”.
Turning to `NC(=O)c1ncc(N[C@@H]2CCCC[C@@H]2N)nc1-c1cc2ccccc2[nH]1`, the CL free in data set [2] came out at 255 mL/min/kg. Also, the bioavailability in data set [3] came to 19%. For the same molecule, the Activity entry with Salmonella typhimurium [1] is on record as “Non-Toxic”.
Turning to `Cn1cc(-c2cc(N[C@@H]3CCCC[C@@H]3N)cnc2C(N)=O)cn1`, the inhibition in data set [4] came to 9%. In addition, the IC50 in data set [5] was more than 10 µM. Moreover, the Activity result with Salmonella typhimurium [1] is reported as “Non-Toxic”.
`Cc1cc(C)nc(Nc2cc(N[C@@H]3CCCC[C@@H]3N)cnc2C(N)=O)c1`: the CL free in data set [2] came out at 710 mL/min/kg. In the data set with Rattus norvegicus, the result was Active. In addition, the Activity entry with Salmonella typhimurium [6] was “Toxic”.
